pEC50, pIC50: −log10 of the molar value.
Legend:
Haemonchus contortus [1] = assay: Anthelmintic activity against Haemonchus contortus assessed as induction of skinny phenotype at 50 uM measured at 168 hrs by microscope based analysis; assay type: functional
Haemonchus contortus [2] = assay: Anthelmintic activity against third stage larvae of Haemonchus contortus assessed as reduction in larval motility measured at 168 hrs by microscope based analysis; assay type: functional, organism-based
Plasmodium falciparum [3] = assay: Antimalarial activity against chloroquine sensitive Plasmodium falciparum 3D7 assessed as parasite growth inhibition at 80 uM incubated for 72 hrs by DAPI staining method; assay type: functional
Plasmodium falciparum [4] = assay: Antimalarial activity against multidrug resistant Plasmodium falciparum Dd2 assessed as parasite growth inhibition at 80 uM incubated for 72 hrs by DAPI staining method; assay type: functional
[5] = Cytotoxicity against HEK293 cells assessed as inhibition of cell growth at 80 uM incubated for 72 hrs by alamar blue dye based fluorescence assay relative to control; assay type: toxicity; conditions: human
Haemonchus contortus [6] = assay: Anthelmintic activity against fourth stage larvae of Haemonchus contortus assessed as induction of skinny phenotype at 100 uM measured after 7 days relative to control; assay type: functional; conditions: time 7 day
[7] = tested on: Human immunodeficiency virus 1; assay: Reversal of HIV-1 latency infected in GFP-fused human J-Lat 10.6 cells assessed as inhibition of 50 nM PMA-induced HIV production by flow cytometry analysis; assay type: functional, organism-based; conditions: Human immunodeficiency virus 1, J-Lat 10.6
[8] = tested on: Human immunodeficiency virus 1; assay: Reversal of HIV-1 latency infected in GFP-fused human J-Lat 10.6 cells assessed as inhibition of 160 nM PMA-induced HIV production at 100 ug/ml incubated for 24 hrs by flow cytometry analysis relative to control; assay type: functional; conditions: Human immunodeficiency virus 1, J-Lat 10.6
[9] = tested on: Human immunodeficiency virus 1; assay: Reversal of HIV-1 latency infected in GFP-fused human J-Lat 10.6 cells assessed as inhibition of 160 nM PMA-induced HIV production incubated for 24 hrs by flow cytometry analysis; assay type: functional, organism-based; conditions: Human immunodeficiency virus 1, J-Lat 10.6, 24 h
Haemonchus contortus [10] = assay: Anthelmintic activity against fourth stage larvae of Haemonchus contortus assessed as induction of skinny phenotype measured after 7 days; assay type: functional, organism-based; conditions: 168 h
Haemonchus contortus [11] = assay: Anthelmintic activity against Haemonchus contortus assessed as inhibition of L4 development at 50 uM measured at 168 hrs by microscope based analysis relative to control; assay type: functional
Haemonchus contortus [12] = assay: Anthelmintic activity against fourth stage larvae of Haemonchus contortus assessed as midbody width of L4 larvae measured after 7 days by microscopic analysis (reference value: 16.3+/-1.5 uM); assay type: functional; conditions: time 7 day
Haemonchus contortus [13] = assay: Anthelmintic activity against third stage larvae of Haemonchus contortus assessed as reduction in larval motility at 50 uM measured at 168 hrs by microscope based analysis relative to control; assay type: functional; design: scale not given: the % may be the effect or the level left
Plasmodium falciparum [14] = assay: Antimalarial activity against multidrug resistant Plasmodium falciparum Dd2 assessed as parasite growth inhibition incubated for 72 hrs by DAPI staining method; assay type: functional, organism-based; conditions: Dd2, 72 h
[15] = Selectivity index, ratio of IC50 for cytotoxicity against HEK293 cells to IC50 for antimalarial activity against chloroquine sensitive Plasmodium falciparum 3D7; assay type: toxicity, cell-based; conditions: human, read-out: Ratio IC50
[16] = Selectivity index, ratio of IC50 for cytotoxicity against HEK293 cells to IC50 for antimalarial activity against multidrug resistant Plasmodium falciparum Dd2; assay type: toxicity, cell-based; conditions: human, read-out: Ratio IC50
Plasmodium falciparum [17] = assay: Antimalarial activity against chloroquine sensitive Plasmodium falciparum 3D7 assessed as parasite growth inhibition incubated for 72 hrs by DAPI staining method; assay type: functional, organism-based; conditions: 3D7, 72 h
[18] = Resistance index, ratio of IC50 for antimalarial activity against multidrug resistant Plasmodium falciparum Dd2 to IC50 for antimalarial activity against chloroquine sensitive Plasmodium falciparum 3D7; assay type: toxicity
[19] = Cytotoxicity against HEK293 cells assessed as inhibition of cell growth incubated for 72 hrs by alamar blue dye based fluorescence assay; assay type: toxicity; conditions: human

Compound	Activity (Haemonchus contortus [1])	pIC50 (Haemonchus contortus [2])	inhibition at 80 µM (Plasmodium falciparum [3])	inhibition at 80 µM (Plasmodium falciparum [4])	inhibition at 72 h, 80 µM [5]	Activity (Haemonchus contortus [6])	pEC50 [7]	inhibition at 100 µg/mL [8]	pEC50 [9]	pIC50 (Haemonchus contortus [10])	inhibition at 50 µM (Haemonchus contortus [11])	Activity (Haemonchus contortus [12])	Activity (Haemonchus contortus [13])	pIC50 (Plasmodium falciparum [14])	selectivity ratio [15]	selectivity ratio [16]	pIC50 (Plasmodium falciparum [17])	Ratio IC50 [18]	IC50 at 72 h [19]
COC(=O)c1cc2c(c(OC)c1OC)[C@H](C)C[C@@H](O)[C@H]2[C@@H](C)CCC=C(C)C	59.1%	5.31	> 41%	> 41%	4%	78.4%	4.42	66.5%	3.84	4.87	5.3%	8.8 µM	28.3%						
COC(=O)c1cc2c(c(OC)c1OC)[C@H](C)C[C@@H](OC(=O)Nc1ccc(Cl)cc1)[C@H]2[C@@H](C)CCC=C(C)C	0%	5.74			3.1%			31.7%			2.5%		26.4%	4.88	6.9	6.1	4.93		
COC(=O)c1cc2c(c(OC)c1OC)[C@H](C)C[C@@H](OC(=O)NS(=O)(=O)c1ccc(C)cc1)[C@H]2[C@@H](C)CCC=C(C)C	67.5%	5.21	> 41%	> 41%	11%			20.7%			21.7%		15.6%						
CO/N=C1\C[C@]2(C[C@@H]3C[C@@H](C/C=C(\C)C[C@@H](C)/C=C/C=C4\CO[C@@H]5[C@H](O)C(C)=C[C@@H](C(=O)O3)[C@]45O)O2)O[C@H](/C(C)=C/C(C)C)[C@H]1C [MOXIDECTIN]	0%	5.52									89.7%		88.2%						
CC(C)=CCC[C@H](C)[C@H]1c2cc(C(=O)O)c(O)c(O)c2[C@H](C)C[C@H]1O	0%	5.44	< 41%	< 41%	8%			< 10%			4%		16.9%						
COC(=O)c1cc2c(c(OC)c1OC)[C@H](C)C[C@@H](OC(=O)Nc1ccc(C)cc1)[C@H]2[C@@H](C)CCC=C(C)C	0%	5.15			12%			36.8%			2.3%		12.9%	4.89	6.6	6.2	4.91	1.1	
COC(=O)c1cc2c(c(OC)c1OC)[C@H](C)C[C@@H](OC(=O)Nc1cc(C(F)(F)F)cc(C(F)(F)F)c1)[C@H]2[C@@H](C)CCC=C(C)C	0%	6.10			34%			39.1%			3.6%		16.9%	4.94	17.5	6.9	5.34	2.5	
COC(=O)c1cc2c(c(OC)c1OC)[C@H](C)C[C@@H](OC(=O)NCc1ccccc1)[C@H]2[C@@H](C)CCC=C(C)C	0%	6.40	> 41%	> 41%	24%			< 10%			-4.4%		44.7%						
COC(=O)c1cc2c(c(OC)c1OC)[C@H](C)C[C@@H](OC(=O)Nc1cccc(Cl)c1)[C@H]2[C@@H](C)CCC=C(C)C	0%	5.80			42%			37.2%			7.1%		39.1%	5.04	8.8	8.7	5.04	1	
CCc1nc(N)nc(N)c1-c1ccc(Cl)cc1 [PYRIMETHAMINE]															> 1010			> 1010	> 10 µM
COC(=O)c1cc2c(c(OC)c1OC)[C@H](C)C[C@@H](OC(=O)Nc1ccccc1)[C@H]2[C@@H](C)CCC=C(C)C	0%	< 4.30		> 41%	47%			29.3%			4%		9.6%		6.9	6.3	4.94	1.1	
CCN(CC)CCCC(C)Nc1ccnc2cc(Cl)ccc12 (stereo not given) [CHLOROQUINE]																			> 10 µM
COC(=O)c1cc2c(c(OC)c1OC)[C@H](C)C[C@@H](OC(=O)Nc1ccc(F)cc1)[C@H]2[C@@H](C)CCC=C(C)C	0%	4.50			25%			28.7%			3.2%		36.2%	4.97	9.2	7.4	5.06	1.2	
COC(=O)c1cc2c(c(OC)c1OC)[C@H](C)C[C@@H](OC(=O)Nc1ccc([N+](=O)[O-])cc1)[C@H]2[C@@H](C)CCC=C(C)C	60%	5.19			52%			43.5%			4.8%		30.4%	4.97	5	7.5	5.12	1.3	
COC(=O)c1cc2c(c(OC)c1OC)[C@H](C)C[C@@H](OC(=O)Nc1ccc(C#N)cc1)[C@H]2[C@@H](C)CCC=C(C)C	1.7%	5.05	< 41%	< 41%	2%			59%	4.01		12%		6.8%						
C[C@](C#N)(COc1cc(C#N)ccc1C(F)(F)F)NC(=O)c1ccc(SC(F)(F)F)cc1 [MONEPANTEL]	0%	6.70									98%		99.2%						
COc1ccc(C[C@H](N)C(=O)N[C@H]2[C@@H](O)[C@H](n3cnc4c(N(C)C)ncnc43)O[C@@H]2CO)cc1 [PUROMYCIN]														7.09	15.5	8.2	7.37	1.9	0.664 µM
C[C@H]1[C@@H](O)O[C@@H]2O[C@@]3(C)CC[C@H]4[C@H](C)CC[C@@H]1[C@@]24OO3 [ARTENIMOL]															> 6680	> 3080		2.2	> 4 µM
COC(=O)c1cc2c(c(OC)c1OC)[C@H](C)C[C@@H](OC(=O)Nc1ccc(OC)cc1)[C@H]2[C@@H](C)CCC=C(C)C	0%	< 4.30			26%			22.9%			2%		18.3%	5.00	8.6	7.9	5.03	1.1	

Source: ChEMBL document CHEMBL5252581, “Using a Bioactive Eremophila-Derived Serrulatane Scaffold to Generate a Unique Carbamate Library for Anti-infective Evaluations” (J Nat Prod, 2023)
